Measurements from US20110262395A1, “SENSORY RECEPTORS FOR CHRONIC FATIGUE AND PAIN AND USES THEREOF” (UNIVERSITY OF UTAH RESEARCH FOUNDATION, priority 2008, published 2011).
“And” between values parts separate entries of the source, which are not always exact repeats. Equal entries are not always repeated. “Also recorded” adds a separate entry of the source.

Tests used:
DRG neurons [1] = assay: Calcium imaging of cultured DRG neurons: antagonist effects on responses to increasing metabolites (protons, lactate, ATP); assay type: cell-based, mouse
From the text: (§1) Harvesting/culturing cells/loading cells: Thirty-nine three week old (4 wells of DRG neurons plated from each mouse), C57Bl/6 mice were anesthetized with isoflurane, and euthanized by cervical dislocation. Dorsal root ganglia (DRG) from lumbar regions were removed into HBSS, treated with trypsin, washed with MEM (Invitrogen 51200-038) containing 10% FBS (Hyclone), 2.4% glucose, 1% glutamax (Invitrogen 35050-061) and 1% penicillin/streptomycin (Atlanta Biological B2110). DRG were triturated, pre-plated and incubated at 37° C. for one hour to reduce non-neuronal cells. Neurons were gently swirled and centrifuged (110×g, 5 min). Cells were removed, re-suspended and 30 μL plated onto the 4 center wells of 24-well plates coated with poly-L-lysine and laminin. A 0.5 mm thick silicone ring with a 4 mm diameter opening sealed to the surface of each well reduced the plating area in each well. Following 1 hour, wells were filled with 37° C. culture medium with 10 ng/mL GDNF (Glial Derived Neurotrophic Factor) (Preprotech 450-10). Sixteen to 23 hours after plating, cultures were loaded with Fura-2 AM (Molecular Probes F-1221) fluorescent dye for 40-60 minutes, then washed with pH 7.4 oxygenated observation medium containing no additional ATP (145 mM NaCl, 5 mM KCl, 2 mM CaCl2, 1 mM MgCl2, 1 mM Citrate, 10 mM glucose, 10 mM MES, 10 mM HEPES). The final well volume was 500 μL.
(§2) Combinations of metabolites applied to mimic naturally occurring conditions: When applied in an escalating series to mimic increases in metabolites that occur with muscle exercise and ischemic muscle exercise, the metabolite values shown in Table 1 were used. The values associated with pH 7.6 are at or below those normally found at rest in the mouse. The values at 7.4 approximate those found at rest. Generally, the low metabolite values associated with pH higher than 7.0 are likely to be non-noxious, while higher metabolite values at pH 7.0 and lower may be associated with pain. These values should bracket the physiological range of metabolites found in skeletal muscle with the last two values (those associated with 6.4 and 6.2) being higher than the physiological range (Bangsbo et al., 1993; Bangsbo et al., 2001; Li et al., 2003; Li et al., 2005; Reeh and Kress, 2001; Steinhagen et al., 1976).
(§3) JYL-1422, LJO-328, A-317567, and a selected stereo isomer of A-317567 were each dissolved in 5% DMSO/95% water and a few μL of 1M HCl to a concentration of 10 mM, then quick frozen and stored at −20° C. Aliquots of antagonists were thawed and diluted to the appropriate concentrations just prior to use in the experiments. The strong buffers maintained the pH of these antagonists when mixed with metabolites.
(§4) Imaging procedure: All experiments were performed at room temperature (20-25° C.) to allow correspondence with most previous experiments using calcium imaging and patch clamp of DRG neurons. Cells were imaged using the Meta Imaging Series Metafluor program (Universal Imaging Corp). All cells identifiable as neurons based on their round shape, clear, single nucleus, were selected from a phase image of the field. At the end of each experiment, 200 nM capsaicin was applied, followed by a wash, and then applied 50 mM KCl. Capsaicin activation indicated the presence of TRPV1 receptors on neurons, and KCl ensured that recorded objects were active neurons, and established the maximal calcium response in each neuron. For some neurons the administration of capsaicin abolished the potential for responding to KCl, thus either a response to capsaicin or to KCl indicated viability of neurons, and only viable neurons were included in analyses.
For each field an average of 151+10 cells were tracked real-time. […] FIGS. 1 and 2 show traces from these graphs. […]

DRG neurons [2] = assay: Calcium imaging of cultured DRG neurons: antagonist effects on responses to capsaicin, ATP or KCl (selectivity control); assay type: cell-based, mouse
From the text: as §1, §3, §4
For each field an average of 151+10 cells were tracked real-time. […]

mouse P2X4 receptors = target: T1, mouse P2X4 receptors (Mus musculus, UniProt Q9JJX6); conditions: cited from earlier work
T1 sequence (Q9JJX6 1-388): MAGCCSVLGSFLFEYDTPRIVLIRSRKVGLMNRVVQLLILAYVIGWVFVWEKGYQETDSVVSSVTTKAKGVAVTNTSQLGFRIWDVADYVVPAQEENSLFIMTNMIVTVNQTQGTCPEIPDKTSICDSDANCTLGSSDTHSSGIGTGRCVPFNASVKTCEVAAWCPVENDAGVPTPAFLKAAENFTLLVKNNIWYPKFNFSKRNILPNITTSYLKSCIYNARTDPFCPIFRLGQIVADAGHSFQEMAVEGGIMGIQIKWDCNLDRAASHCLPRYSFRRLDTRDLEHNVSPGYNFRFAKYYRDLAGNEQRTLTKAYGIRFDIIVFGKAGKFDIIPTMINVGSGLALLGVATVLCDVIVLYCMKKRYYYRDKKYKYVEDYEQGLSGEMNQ

P2X3 receptors = target: T2, P2X3 receptors (Homo sapiens, UniProt P56373); conditions: cited from earlier work
T2 sequence (P56373 1-397): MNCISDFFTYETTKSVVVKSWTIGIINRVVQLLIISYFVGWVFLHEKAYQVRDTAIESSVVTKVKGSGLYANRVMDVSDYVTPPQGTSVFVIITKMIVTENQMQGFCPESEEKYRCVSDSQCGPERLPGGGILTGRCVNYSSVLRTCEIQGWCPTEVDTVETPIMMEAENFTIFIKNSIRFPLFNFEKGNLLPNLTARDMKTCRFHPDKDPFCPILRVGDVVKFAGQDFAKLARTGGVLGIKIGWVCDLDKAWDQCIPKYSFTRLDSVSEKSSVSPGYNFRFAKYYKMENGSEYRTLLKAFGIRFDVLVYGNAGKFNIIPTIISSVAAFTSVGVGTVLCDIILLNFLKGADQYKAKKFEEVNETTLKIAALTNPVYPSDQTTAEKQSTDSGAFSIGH

P2X5 receptors = P2X5 receptors (Homo sapiens, UniProt Q93086); conditions: cited from earlier work
P2X5 receptors, sequence (Q93086 whole entry): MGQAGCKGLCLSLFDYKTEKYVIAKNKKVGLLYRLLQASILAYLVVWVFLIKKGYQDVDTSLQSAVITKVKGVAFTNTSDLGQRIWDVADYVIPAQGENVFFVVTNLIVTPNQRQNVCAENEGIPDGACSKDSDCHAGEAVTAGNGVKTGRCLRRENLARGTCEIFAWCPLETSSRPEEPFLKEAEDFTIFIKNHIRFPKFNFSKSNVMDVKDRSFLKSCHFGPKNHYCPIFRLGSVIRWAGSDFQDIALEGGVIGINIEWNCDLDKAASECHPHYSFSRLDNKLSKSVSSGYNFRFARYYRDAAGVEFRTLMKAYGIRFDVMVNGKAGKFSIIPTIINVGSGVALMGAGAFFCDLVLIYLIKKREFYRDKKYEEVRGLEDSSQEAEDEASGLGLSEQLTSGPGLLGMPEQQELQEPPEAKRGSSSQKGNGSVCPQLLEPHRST

TRPV1 receptors = TRPV1 receptors (Mus musculus, UniProt Q704Y3); conditions: cited from earlier work
TRPV1 receptors, sequence (Q704Y3 whole entry): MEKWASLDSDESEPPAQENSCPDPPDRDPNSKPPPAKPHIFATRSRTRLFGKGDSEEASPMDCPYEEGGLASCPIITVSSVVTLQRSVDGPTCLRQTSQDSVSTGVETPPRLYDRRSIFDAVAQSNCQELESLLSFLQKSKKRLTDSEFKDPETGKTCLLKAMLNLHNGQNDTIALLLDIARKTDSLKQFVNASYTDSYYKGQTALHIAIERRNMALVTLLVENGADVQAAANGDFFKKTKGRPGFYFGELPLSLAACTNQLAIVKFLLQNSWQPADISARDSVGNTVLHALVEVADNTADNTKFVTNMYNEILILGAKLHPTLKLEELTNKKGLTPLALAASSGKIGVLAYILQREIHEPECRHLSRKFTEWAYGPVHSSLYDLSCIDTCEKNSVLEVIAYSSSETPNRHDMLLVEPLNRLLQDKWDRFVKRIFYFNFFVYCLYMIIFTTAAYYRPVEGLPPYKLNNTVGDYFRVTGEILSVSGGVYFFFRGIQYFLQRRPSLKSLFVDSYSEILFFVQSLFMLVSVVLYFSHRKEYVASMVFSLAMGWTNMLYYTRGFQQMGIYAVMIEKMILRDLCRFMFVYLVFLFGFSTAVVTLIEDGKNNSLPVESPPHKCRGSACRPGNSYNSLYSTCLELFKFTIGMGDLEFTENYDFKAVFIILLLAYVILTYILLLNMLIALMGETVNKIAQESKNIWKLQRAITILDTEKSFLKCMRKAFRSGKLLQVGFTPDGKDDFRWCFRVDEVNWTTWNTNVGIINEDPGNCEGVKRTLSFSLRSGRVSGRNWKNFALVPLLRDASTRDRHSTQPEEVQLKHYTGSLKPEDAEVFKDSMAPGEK

DRG neurons [3] = conditions: patch-clamp, previous reports; cited from earlier work
DRG neurons [4] = assay: Calcium imaging of cultured DRG neurons: percent of neurons responding to applied metabolites or capsaicin; assay type: cell-based, mouse; conditions: 200 nM
From the text: as §1
Choice and concentrations of metabolites: Because the afferent receptors in muscle have been reported to be on the outside of blood vessels supplying muscle, values obtained for muscle interstitium from experiments using cat, rat, and human for muscle contraction evoked by mild to moderate to extreme exercise were used.
Protons (pH): Values between 7.6 and 6.2 were used spanning the range found in skeletal and cardiac muscle in mammals from above resting values to those found with injury and disease.
Lactate: 1-50 mM lactate was used, a range of values that spans from rest to ischemia in muscles of humans and rats and mice.
ATP: ATP concentrations in muscle interstitium increase from 300 nM at rest to 5 μM with ischemic muscle contraction (Hellsten et al., 1998; Li et al., 2003; Li et al., 2005). These levels were used in the experiments described below. […] To allow for physiological levels of desensitization of possible P2X receptors, freshly prepared ATP at 300 nM was used for at least 30 seconds before any further increases in ATP combined with other metabolites, to establish resting conditions in DRG neurons in these experiments. […] Also used were pH 6.0 and 4.0 without additional increases in metabolites to confirm that the imaging experiments could replicate recent reports using patch-clamp techniques (Leffler et al., 2006).
as §2
Di-I labeling: In some experiments, neurons were identified as innervating muscle by prior muscle labeling with Di-I. Twelve 7-9 day old mice were anesthetized by cooling. […]

TRPV1 = TRPV1 (Homo sapiens, UniProt Q8NER1); conditions: cited from earlier work
TRPV1, sequence (Q8NER1 whole entry, species assumed): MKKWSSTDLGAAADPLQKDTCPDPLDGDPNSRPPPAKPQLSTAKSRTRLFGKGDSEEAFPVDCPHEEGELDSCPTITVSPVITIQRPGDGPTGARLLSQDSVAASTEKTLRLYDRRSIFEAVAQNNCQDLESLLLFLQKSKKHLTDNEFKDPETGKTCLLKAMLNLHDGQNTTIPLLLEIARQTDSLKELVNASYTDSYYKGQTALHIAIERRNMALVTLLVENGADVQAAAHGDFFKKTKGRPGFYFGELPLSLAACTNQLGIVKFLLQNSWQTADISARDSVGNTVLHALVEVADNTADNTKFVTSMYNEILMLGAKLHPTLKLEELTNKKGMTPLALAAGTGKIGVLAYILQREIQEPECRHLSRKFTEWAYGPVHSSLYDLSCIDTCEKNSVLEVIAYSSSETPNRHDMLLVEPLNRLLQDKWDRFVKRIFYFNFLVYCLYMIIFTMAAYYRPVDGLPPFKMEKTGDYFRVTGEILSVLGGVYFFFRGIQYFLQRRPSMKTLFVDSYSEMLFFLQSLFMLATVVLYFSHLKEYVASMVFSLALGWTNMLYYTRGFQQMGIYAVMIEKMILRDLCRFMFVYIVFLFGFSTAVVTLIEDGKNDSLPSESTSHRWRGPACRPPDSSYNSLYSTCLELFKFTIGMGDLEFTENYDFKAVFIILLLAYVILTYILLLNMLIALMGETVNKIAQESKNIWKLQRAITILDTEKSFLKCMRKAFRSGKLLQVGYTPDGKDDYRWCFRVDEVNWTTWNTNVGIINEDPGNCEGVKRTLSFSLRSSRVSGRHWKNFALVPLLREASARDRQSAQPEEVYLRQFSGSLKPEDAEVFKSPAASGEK

ASIC receptor = conditions: cited from earlier work
ASIC3 = target: T3, ASIC3 (Homo sapiens, UniProt Q9UHC3); conditions: pH 7.0; cited from earlier work
T3 sequence (Q9UHC3 1-531): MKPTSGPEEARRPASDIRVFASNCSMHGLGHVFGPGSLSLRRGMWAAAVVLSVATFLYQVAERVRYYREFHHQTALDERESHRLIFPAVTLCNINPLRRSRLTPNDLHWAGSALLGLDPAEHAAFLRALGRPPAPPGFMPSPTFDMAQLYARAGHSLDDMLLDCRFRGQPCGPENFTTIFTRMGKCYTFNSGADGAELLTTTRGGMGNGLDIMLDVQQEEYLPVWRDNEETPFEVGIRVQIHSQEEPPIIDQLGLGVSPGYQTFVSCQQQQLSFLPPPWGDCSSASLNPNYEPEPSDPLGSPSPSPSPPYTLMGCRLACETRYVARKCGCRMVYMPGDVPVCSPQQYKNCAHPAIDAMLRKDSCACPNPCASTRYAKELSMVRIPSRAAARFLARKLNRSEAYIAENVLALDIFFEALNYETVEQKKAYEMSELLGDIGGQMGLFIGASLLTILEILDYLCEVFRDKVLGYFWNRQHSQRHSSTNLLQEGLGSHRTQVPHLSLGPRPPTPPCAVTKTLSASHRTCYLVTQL

Compound: TNP-ATP
- effect on responses to increasing metabolites (DRG neurons [1]; antagonist 10 nM): facilitated responses; also recorded: can increase responses of DRG neurons to increasing metabolites
- effect on responses to increasing metabolites (DRG neurons [1]; antagonist 200 μM): blocked nearly all responses to metabolites; also recorded: abolished most responses to increasing metabolites
- effect on metabolite responses associated with pH 6.8 and above (DRG neurons [1]; antagonist 1 and 10 μM): had little effect
- effect on responses to low metabolites (DRG neurons [1]; antagonist 1 and 10 μM (FIG. 2 legend: 1 μM), metabolites between pH 7.3-7.0): reduced low metabolite responses; also recorded: reduced responses of DRG neurons; also recorded: eliminated most responses to low metabolites
- effect on responses to increasing metabolites (DRG neurons [1]; antagonist 200-300 μM, doses effective at all P2X receptors): eliminated nearly all responses to increasing metabolites
- effect on responses to metabolites (DRG neurons [1]; antagonist at 10 μM (so in the source), p<0.05): increased responses to metabolites
- capsaicin and KCl responses in presence of antagonist (DRG neurons [2]; any dose): unaffected
- IC50 (mouse P2X4 receptors): 16000 nM
- IC50 (P2X3 receptors): 0.31 nM and 0.3 nM
- IC50 (P2X5 receptors): 500 nM

Compound: Oc1cc2c(cc1O)CN(C(=S)NCCc1ccc(Cl)cc1)CCC2 [Capsazepine]
- inhibitory action on pH responses of TRPV1 receptors (TRPV1 receptors): little inhibitory action

Compound: COc1cc(CNC(=O)CCCC/C=C/C(C)C)ccc1O [capsaicin]
- capsaicin responses in DRG neurons, percent (DRG neurons [3]): 36% and 20%
- percentage of DRG neurons responding with rapid calcium increase (DRG neurons [4]; all DRG neurons): 50.9±4.2%
- percentage of DRG neurons responding with rapid calcium increase (DRG neurons [4]; all muscle labeled neurons): 48.8 ± 5.8%
- percentage of DRG neurons responding with rapid calcium increase (DRG neurons [4]; metabolite-responding DRG neurons): 71.9 ± 4.2%
- percentage of DRG neurons responding with rapid calcium increase (DRG neurons [4]; muscle labeled metabolite responders): 63.4 ± 5.8%

Compound: Cc1ccc(CC(CNC(=S)NCc2ccc(NS(C)(=O)=O)c(F)c2)COC(=O)C(C)(C)C)cc1C (centres unmarked) [JYL-1433]
- responses to KCl application in presence of antagonist (DRG neurons [2]; antagonist 2 μM, 50 mM KCl): remained normal
- TRPV1 antagonism (TRPV1): potent full antagonists of TRPV1

Compound: N=C(N)NC(=O)c1nc(Cl)c(N)nc1N [Amiloride]
- effect on ASIC receptor responses to low pH (ASIC receptor): antagonizes all ASIC receptor responses to low pH
- effect on ASIC3 responses to moderate pH levels (ASIC3): enhanced
